Source: PubChem BioAssay AID1259407 (Chemical Carcinogenesis Research Information System (CCRIS), 2018)
The source made the active and inactive calls. How the calls were made is not given here.

Tested on: CCRIS mutagenicity, Ames/micronucleus/aberration tests
Test: CCRIS mutagenicity studies
[1] = Test System: AMES SALMONELLA TYPHIMURIUM, Strain/Indicator: TA98, Metabolic Activation: NONE, Method: PREINCUBATION
[2] = Test System: AMES SALMONELLA TYPHIMURIUM, Strain/Indicator: TA98, Metabolic Activation: RAT, LIVER, S-9, AROCLOR 1254, Method: PREINCUBATION
[3] = Test System: AMES SALMONELLA TYPHIMURIUM, Strain/Indicator: TA100, Metabolic Activation: NONE, Method: PREINCUBATION
[4] = Test System: AMES SALMONELLA TYPHIMURIUM, Strain/Indicator: TA100, Metabolic Activation: RAT, LIVER, S-9, AROCLOR 1254, Method: PREINCUBATION
[5] = Test System: AMES SALMONELLA TYPHIMURIUM, Strain/Indicator: TA1535, Metabolic Activation: NONE, Method: PREINCUBATION
[6] = Test System: AMES SALMONELLA TYPHIMURIUM, Strain/Indicator: TA98, Metabolic Activation: NONE, Method: STANDARD PLATE
[7] = Test System: AMES SALMONELLA TYPHIMURIUM, Strain/Indicator: TA98, Metabolic Activation: RAT, LIVER, S-9, AROCLOR 1254, Method: STANDARD PLATE
[8] = Test System: AMES SALMONELLA TYPHIMURIUM, Strain/Indicator: TA100, Metabolic Activation: NONE, Method: STANDARD PLATE
[9] = Test System: AMES SALMONELLA TYPHIMURIUM, Strain/Indicator: TA100, Metabolic Activation: RAT, LIVER, S-9, AROCLOR 1254, Method: STANDARD PLATE

CC(=O)OC1CC(C)OC(C)O1 (stereo unspecified)
mutagenic call (Test System: AMES SALMONELLA TYPHIMURIUM, Strain/Indicator: TA98, Metabolic Activation: HAMSTER, LIVER, S-9, AROCLOR 1254, Method: PREINCUBATION): inactive; negative | mutagenic call [1]: inactive; negative | mutagenic call [2]: inactive; negative | mutagenic call (Test System: AMES SALMONELLA TYPHIMURIUM, Strain/Indicator: TA100, Metabolic Activation: HAMSTER, LIVER, S-9, AROCLOR 1254, Method: PREINCUBATION): active; positive | mutagenic call [3]: inactive; negative | mutagenic call [4]: active; positive | mutagenic call (Test System: AMES SALMONELLA TYPHIMURIUM, Strain/Indicator: TA1535, Metabolic Activation: HAMSTER, LIVER, S-9, AROCLOR 1254, Method: PREINCUBATION): inactive; negative | mutagenic call [5]: inactive; negative | mutagenic call (Test System: AMES SALMONELLA TYPHIMURIUM, Strain/Indicator: TA1535, Metabolic Activation: RAT, LIVER, S-9, AROCLOR 1254, Method: PREINCUBATION): inactive; negative | mutagenic call (Test System: AMES SALMONELLA TYPHIMURIUM, Strain/Indicator: TA1537, Metabolic Activation: HAMSTER, LIVER, S-9, AROCLOR 1254, Method: PREINCUBATION): inactive; negative | mutagenic call (Test System: AMES SALMONELLA TYPHIMURIUM, Strain/Indicator: TA1537, Metabolic Activation: NONE, Method: PREINCUBATION): inactive; negative | mutagenic call (Test System: AMES SALMONELLA TYPHIMURIUM, Strain/Indicator: TA1537, Metabolic Activation: RAT, LIVER, S-9, AROCLOR 1254, Method: PREINCUBATION): inactive; negative

Fc1ccc(F)c2c1ccc1cccnc12
mutagenic call (Test System: AMES SALMONELLA TYPHIMURIUM, Strain/Indicator: TA100, Metabolic Activation: RAT, LIVER, S-9, PHENOBARBITAL AND 5,6-BENZOFLAVONE, Method: PREINCUBATION): active; positive

Nc1c2ccccc2cc2ccccc12
mutagenic call (Test System: AMES SALMONELLA TYPHIMURIUM, Strain/Indicator: TA98, Metabolic Activation: RAT, LIVER, S-9, AROCLOR 1254 (2%), Method: STANDARD PLATE): active; positive | mutagenic call (Test System: AMES SALMONELLA TYPHIMURIUM, Strain/Indicator: TA98, Metabolic Activation: RAT, LIVER, S-9, AROCLOR 1254 (4%), Method: STANDARD PLATE): active; positive | mutagenic call (Test System: AMES SALMONELLA TYPHIMURIUM, Strain/Indicator: TA100, Metabolic Activation: RAT, LIVER, S-9, AROCLOR 1254 (2%), Method: STANDARD PLATE): active; positive | mutagenic call (Test System: AMES SALMONELLA TYPHIMURIUM, Strain/Indicator: TA1535, Metabolic Activation: RAT, LIVER, S-9, AROCLOR 1254 (2%), Method: STANDARD PLATE): inactive; negative | mutagenic call (Test System: AMES SALMONELLA TYPHIMURIUM, Strain/Indicator: TA1537, Metabolic Activation: RAT, LIVER, S-9, AROCLOR 1254 (2%), Method: STANDARD PLATE): active; positive

ClCC(Cl)COCC(Cl)CCl (stereo unspecified)
mutagenic call [1]: inactive; negative | mutagenic call (Test System: AMES SALMONELLA TYPHIMURIUM, Strain/Indicator: TA98, Metabolic Activation: RAT LIVER S-9, AROCLOR 1254 (10%), Method: PREINCUBATION): active; positive | mutagenic call [3]: inactive; negative | mutagenic call (Test System: AMES SALMONELLA TYPHIMURIUM, Strain/Indicator: TA100, Metabolic Activation: RAT LIVER S-9, AROCLOR 1254 (10%), Method: PREINCUBATION): active; positive | mutagenic call [5]: inactive; negative | mutagenic call (Test System: AMES SALMONELLA TYPHIMURIUM, Strain/Indicator: TA1535, Metabolic Activation: RAT LIVER S-9, AROCLOR 1254 (10%), Method: PREINCUBATION): active; positive | mutagenic call (Test System: AMES SALMONELLA TYPHIMURIUM, Strain/Indicator: TA1538, Metabolic Activation: NONE, Method: PREINCUBATION): inactive; negative | mutagenic call (Test System: AMES SALMONELLA TYPHIMURIUM, Strain/Indicator: TA1538, Metabolic Activation: RAT LIVER S-9, AROCLOR 1254 (10%), Method: PREINCUBATION): inactive; negative

O=c1ccc2cc3ccoc3cc2o1
mutagenic call [6]: inactive; negative | mutagenic call [7]: inactive; negative | mutagenic call (Test System: AMES SALMONELLA TYPHIMURIUM, Strain/Indicator: TA98, Metabolic Activation: RAT, LIVER, S-9, PHENOBARBITAL, Method: STANDARD PLATE): inactive; negative | mutagenic call [8]: inactive; negative | mutagenic call [9]: inactive; negative

Nc1cc(Cl)c(N)c(Cl)c1
mutagenic call (End Point: IN VITRO CHROMOSOMAL ABERRATIONS, Test System: CHO CELLS, Metabolic Activation: NONE): active; positive; weak response

O=C(CO)N(O)c1ccc(Cl)cc1
mutagenic call [6]: inactive; negative | mutagenic call [7]: inactive; negative | mutagenic call [8]: inactive; negative | mutagenic call [9]: inactive; negative

CCCCC/C=C/C=C/C=O
mutagenic call (Test System: AMES SALMONELLA TYPHIMURIUM, Strain/Indicator: TA98, Metabolic Activation: HAMSTER, LIVER, S-9, AROCLOR 1254, Method: STANDARD PLATE): inactive; negative | mutagenic call [6]: inactive; negative | mutagenic call [7]: inactive; negative | mutagenic call (Test System: AMES SALMONELLA TYPHIMURIUM, Strain/Indicator: TA100, Metabolic Activation: HAMSTER, LIVER, S-9, AROCLOR 1254, Method: STANDARD PLATE): inactive; negative | mutagenic call [8]: inactive; negative | mutagenic call [9]: inactive; negative | mutagenic call (Test System: AMES SALMONELLA TYPHIMURIUM, Strain/Indicator: TA1535, Metabolic Activation: HAMSTER, LIVER, S-9, AROCLOR 1254, Method: STANDARD PLATE): inactive; negative | mutagenic call (Test System: AMES SALMONELLA TYPHIMURIUM, Strain/Indicator: TA1535, Metabolic Activation: NONE, Method: STANDARD PLATE): inactive; negative | mutagenic call (Test System: AMES SALMONELLA TYPHIMURIUM, Strain/Indicator: TA1535, Metabolic Activation: RAT, LIVER, S-9, AROCLOR 1254, Method: STANDARD PLATE): inactive; negative | mutagenic call (Test System: AMES SALMONELLA TYPHIMURIUM, Strain/Indicator: TA1537, Metabolic Activation: HAMSTER, LIVER, S-9, AROCLOR 1254, Method: STANDARD PLATE): inactive; negative | mutagenic call (Test System: AMES SALMONELLA TYPHIMURIUM, Strain/Indicator: TA1537, Metabolic Activation: NONE, Method: STANDARD PLATE): inactive; negative | mutagenic call (Test System: AMES SALMONELLA TYPHIMURIUM, Strain/Indicator: TA1537, Metabolic Activation: RAT, LIVER, S-9, AROCLOR 1254, Method: STANDARD PLATE): inactive; negative | mutagenic call (Test System: AMES SALMONELLA TYPHIMURIUM, Strain/Indicator: TA1538, Metabolic Activation: HAMSTER, LIVER, S-9, AROCLOR 1254, Method: STANDARD PLATE): inactive; negative | mutagenic call (Test System: AMES SALMONELLA TYPHIMURIUM, Strain/Indicator: TA1538, Metabolic Activation: NONE, Method: STANDARD PLATE): inactive; negative | mutagenic call (Test System: AMES SALMONELLA TYPHIMURIUM, Strain/Indicator: TA1538, Metabolic Activation: RAT, LIVER, S-9, AROCLOR 1254, Method: STANDARD PLATE): inactive; negative | mutagenic call (Test System: MOUSE LYMPHOMA, Strain/Indicator: L5178Y (TK+/TK-), Metabolic Activation: NONE, Method: SUSPENSION/PLATE): inactive; negative. reevaluation of results: negative | mutagenic call (Test System: MOUSE LYMPHOMA, Strain/Indicator: L5178Y (TK+/TK-), Metabolic Activation: RAT, LIVER, S-9, AROCLOR 1254, Method: SUSPENSION/PLATE): inactive; negative. reevaluation of results: negative

N#C[S-].N#C[S-].N#C[S-].N#C[S-].N#C[S-].N#C[S-].[K+].[K+].[Pt+4]
mutagenic call [1]: inactive; negative | mutagenic call [2]: inactive; negative | mutagenic call [3]: inactive; negative | mutagenic call [4]: inactive; negative

O=[N+]([O-])c1cc2[nH]c3ccc4ccccc4c3c2c2cc(O)ccc12
mutagenic call [6]: inactive; negative | mutagenic call (Test System: AMES SALMONELLA TYPHIMURIUM, Strain/Indicator: TA98, Metabolic Activation: RAT, LIVER, S-9, 3-METHYLCHOLANTHRENE, Method: STANDARD PLATE): active; positive | mutagenic call [8]: active; positive | mutagenic call (Test System: AMES SALMONELLA TYPHIMURIUM, Strain/Indicator: TA100, Metabolic Activation: RAT, LIVER, S-9, 3-METHYLCHOLANTHRENE, Method: STANDARD PLATE): active; positive
